How the values were obtained:
[1] = biological target: T1, MALT1 paracaspase domain (329-728) (Homo sapiens, UniProt Q9UDY8); assay: LC-MS covalent modification; format: binding
T1 construct: MALT1 paracaspase domain (329-728) presented a major peak at 55,988.4 Da
Procedure: The final results were ranked on the predicted binding free energy and the cluster size for each docking conformation.
HPLC/ESI-MS experiments were carried out on 5 μl sample at 1 mg/ml protein concentration. Separation of proteins was performed on a HP 1100 system (Hewlett Packard, Palo Alto, Calif., USA) employing a 1 mm×150 mm LC Packings column packed with POROS R1/H (Perseptive Biosystems, Foster City, Calif., USA). The column was kept at 80° C. Samples were injected onto the column using a CTC PAL autosampler (CTC, Zwingen Switzerland) fitted with a Valco model C6UW HPLC valve (Valco, Houston, Tex., USA) and a 10 μl injection loop. HPLC was controlled by MassLynx software (Micromass, Manchester, UK). UV detection was performed at 214 nm. Eluent A was water containing 0.05% TFA. Eluent B was a 1:9 mixture of water:acetonitrile containing 0.045% TFA. A gradient from 20% B to 90% B was run in 20 minutes. The flow rate was typically 60 μl/min. The total flow from the LC system was introduced into the UV detection cell prior to introduction in the ESI source. The HPLC system was controlled and the signal from the UV detector was processed using MassLynx software. […] Data were recorded and processed using MassLynx software. […]

[2] = tested on: ABC-DLBCL MALT1 independent cell lines U2932 and HLY-1; assay: Growth inhibition, MALT1 independent ABC-DLBCL cell lines; format: cell-based, human; conditions: increasing concentrations, single dose, 48 hr
Procedure: Endogenous MALT1 activity was evaluated by Western blotting for A20, BCL10 and CYLD; and NF-κB activation, by phospho-IκB-α and total IκB-α. Dependence on MALT1 proteolytic activity for proliferation was tested by 50[…]μM Z-VRPR-FMK treatment for 48 hr. […] The U2932 and HLY1 ABC-DLBCL cell lines harbor mutations in TAK1 and A20, which activate NF-κB signaling downstream of MALT1.
Cell proliferation was determined by ATP quantification using a luminescent method (CellTiter-Glo, Promega, Madison, Wis.) and Trypan blue dye-exclusion (Sigma, St. Louis, Mo.). Cell viability in drug-treated cells was normalized to their respective controls (fractional viability) and results are given as 1-fractional viability. […]
DLBCL cell lines were grown in exponential growth conditions during the 48 hr of treatment. Cell proliferation was determined by ATP quantification using a luminescent method (CellTiter-Glo, Promega, Madison, Wis.) and Trypan blue dye-exclusion (Sigma, St. Louis, Mo.). Luminescence was measured using the Synergy4 microplate reader (BioTek Instruments, Winooski, Vt.). Standard curves for each cell line were calculated by plotting the cell number (determined by the Trypan blue method) against their luminescence values and number of cells was calculated accordingly. […]

[3] = tested on: NF-κB signaling gene signatures; assay: Gene expression profiling and GSEA in HBL-1 and TMD8 cell lines; format: cell-based, human; conditions: 8 hr, HBL-1 200 nM, TMD8 500 nM
Procedure: The impact of MI-2 on NF-κB signaling was further characterized by gene expression profiling. […] Z-VRPR-FMK was previously shown to attenuate the NF-κB signature in ABC-DLBCL cell lines (Hailfinger et al., 2009). […] GSEA was next performed using two independent ABC-DLBCL NF-κB gene expression signatures derived from either OCI-Ly3 and OCI-Ly10 or HBL-1 cell lines.
RNA integrity was determined using the RNA 6000 Nano LabChip Kit on an Agilent 2100 Bioanalyzer (Agilent Technologies, Santa Clara, Calif.). Samples were processed following Illumina recommendations and cRNA was hybridized to the HumanHT-12 v4 Expression BeadChip (Illumina, San Diego, Calif.). Arrays were scanned on the iScan system. Data pre-processing and quality control were performed using GenomeStudio. The data were log2-transformed combined with quantile normalization (Du et al., 2008). GEO accession number GSE40003.
In order to determine the biological significance of the results, enrichment tests with respect to sets of related genes were carried out. To this end, we used GSEA (Gene Set Enrichment Analysis) software, and datasets were pre-ranked by fold change value (Subramanian et al., 2005). The p-values for each gene-set were computed on the basis of 1,000 iterations and multiple hypotheses testing correction for FDR calculation (Storey and Tibshirani, 2003).

[4] = tested on: NF-κB reporter activity; assay: NF-κB reporter assay in HBL-1 cells; format: cell-based, human
Description: Antigen receptor-mediated NF-κB signaling partly depends on MALT1 activity (Ruefli-Brasse et al., 2003; Ruland et al., 2003). […] First, 293T cells were transfected with the NF-κB reporter vector (NF-κB)5-luc2CP-pGL4 (harboring 5 copies of the NF-κB consensus response element and a destabilized Firefly luciferase) and TK-pRL control together with plasmids expressing BCL10 and either MALT1^WT or MALT1^C464A. […] HBL-1 was transfected with the reporter construct (NF-κB)5-luc2CP-pGL4 and TK-pRL control.
Reporter assays were performed in 293T cells seeded at a density of 2×10^5 cells per well of a 12-well dish. 100 ng of (NF-κB)5-Luc2CP-pGL4 and 10 ng of TK-Renilla internal control plasmid were cotransfected along with 25 ng of the indicated plasmids (MIGR1-MALT1^WT or MIGR1-MALT1^C464A and pcDNA4-Flag-Bcl10) using Lipofectamine 2000 (Invitrogen). Lysates were submitted to dual luciferase assays following manufacturer's protocol (Promega). In HBL-1, 5 μg of (NF-κB)5-Luc2CP-pGL4 and 50 ng of TK-Renilla internal control plasmid per 5×10^6 cells were cotransfected using nucleofection (Amaxa, Lonza, Basel, Switzerland). Forty-eight hours after transfection, cells were plated at a density of 5×10^4 cells per well of a 24-well plate and treated as indicated. Lysates were submitted to dual luciferase assays following manufacturer's protocol (Promega).

T1 sequence (Q9UDY8 329-728): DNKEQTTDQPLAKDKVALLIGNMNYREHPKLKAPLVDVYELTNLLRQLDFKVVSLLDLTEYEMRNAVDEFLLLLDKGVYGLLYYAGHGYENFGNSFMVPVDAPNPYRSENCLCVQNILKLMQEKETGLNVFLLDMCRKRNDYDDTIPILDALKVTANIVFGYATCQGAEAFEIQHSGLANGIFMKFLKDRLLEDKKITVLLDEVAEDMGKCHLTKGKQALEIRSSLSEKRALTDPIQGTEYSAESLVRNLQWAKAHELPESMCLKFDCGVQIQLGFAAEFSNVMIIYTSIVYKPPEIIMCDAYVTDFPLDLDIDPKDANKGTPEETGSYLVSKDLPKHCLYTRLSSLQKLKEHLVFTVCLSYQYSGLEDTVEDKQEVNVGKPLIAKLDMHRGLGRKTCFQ

COCCOc1nc(-c2ccc(Cl)c(Cl)c2)n(-c2ccc(NC(=O)CCl)cc2)n1 [MI-2]
covalent binding to MALT1 ([1]; LC-MS): bind covalently | increase of the major peak of MALT1 upon incubation ([1]; LC-MS, 55,988.4 Da shifted to 56,407.5 Da): 419.1 Da | growth inhibition [2]: resistant | GSEA of ABC-DLBCL NF-κB gene expression signatures [3]: significant enrichment of these NF-κB gene sets among genes downregulated | GSEA of Z-VRPR-FMK signature [3]: significantly enriched among genes downregulated after MI-2-treatment | reduction in NF-κB reporter activity ([4]; HBL-1, 8 hr): 20% | reduction in NF-κB reporter activity ([4]; HBL-1, 24 hr): 50%

— patent publication US9592223B2, “Small molecule inhibitors of MALT1” (Cornell University, priority 2012, dated 2017)
